Like-named read-outs stand apart in the source and are kept apart here. Starred links: 1 amine or outer side, 2 acyl side, 3 side chain; linkers in the order of their positions; H or OH if unused. Non-standard residues stand in square brackets, D forms with d. Residues, ends and D or L forms follow the SMILES beside them. Groups on a side chain read outwards from the residue. No end group written: not given here. *: point of attachment. C20 diacid = O=C(O)CCCCCCCCCCCCCCCCCCC(=O)*; C18 diacid = O=C(O)CCCCCCCCCCCCCCCCC(=O)*; αMePhe(2-F) = C[C@](N)(Cc1ccccc1F)C(=O)O; γGlu = O=C(O)[C@H](CCC(=O)[*:2])N[*:1]; αMe4Pal = C[C@](N)(Cc1ccncc1)C(=O)O; αMeY = C[C@](N)(Cc1ccc(O)cc1)C(=O)O; 4Pal = N[C@@H](Cc1ccncc1)C(=O)O; αMeL = CC(C)C[C@](C)(N)C(=O)O; αMeS = C[C@](N)(CO)C(=O)O; Orn = NCCC[C@H](N)C(=O)O; AEEA = NCCOCCOCC(=O)O; Aib = CC(C)(N)C(=O)O
What was measured:
Type in all cases: cell-based
[1] = molecular target: T1, hGIPR (Homo sapiens, UniProt P48546); assay: Functional cAMP activity in the presence of 1% HSA; details: read-out: cAMP Rel EC50, hGIPR
T1 sequence (P48546 22-466): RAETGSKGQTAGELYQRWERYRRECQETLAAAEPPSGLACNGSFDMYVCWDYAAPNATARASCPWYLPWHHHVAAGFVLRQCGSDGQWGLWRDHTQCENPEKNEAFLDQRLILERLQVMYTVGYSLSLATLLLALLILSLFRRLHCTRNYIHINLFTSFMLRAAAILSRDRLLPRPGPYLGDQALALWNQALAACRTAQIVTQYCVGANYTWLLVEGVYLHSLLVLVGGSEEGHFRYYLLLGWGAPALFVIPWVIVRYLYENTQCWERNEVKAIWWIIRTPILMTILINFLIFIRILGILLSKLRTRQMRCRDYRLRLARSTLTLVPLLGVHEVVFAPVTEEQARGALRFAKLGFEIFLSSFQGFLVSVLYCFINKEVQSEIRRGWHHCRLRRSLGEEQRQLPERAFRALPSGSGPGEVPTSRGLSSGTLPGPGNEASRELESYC

[2] = molecular target: T2, hGLP-1R (Homo sapiens, UniProt P43220); assay: Functional cAMP activity in the presence of 1% HSA; details: read-out: cAMP Rel EC50, hGLP-1R
[3] = molecular target: human GcgR (Homo sapiens, UniProt P47871); assay: Functional cAMP activity in the presence of 1% HSA; details: read-out: cAMP Rel EC50, hGcgR
[4] = molecular target: T1, hGIPR; assay: Functional cAMP activation in the presence of 0.1% casein (no HSA); details: read-out: Relative cAMP EC50, hGIPR;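 on Relative cAMP EC50, hGIPR: intracellular cAMP rise after 30 min at 37 °C read by HTRF against a standard curve, scaled between buffer alone (0%) and top control ligand concentration (100%), four-parameter fit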;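 on Relative cAMP EC50, hGLP-1R: intracellular cAMP rise after 30 min at 37 °C read by HTRF, normalized between buffer only (0%) and maximal control ligand (100%), four-parameter variable-slope fit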;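 on Relative cAMP EC50, hGcgR: intracellular cAMP rise after 30 min at 37 °C, read by HTRF against a cAMP standard curve, scaled from buffer only (0%) to maximal control ligand response (100%)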
[5] = molecular target: T2, hGLP-1R; assay: as above; details: read-out: Relative cAMP EC50, hGLP-1R
[6] = molecular target: hGcgR (Homo sapiens, UniProt P47871); assay: as above; details: read-out: Relative cAMP EC50, hGcgR;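 further: intracellular cAMP rise after 30 min at 37 °C, read by HTRF against a cAMP standard curve, scaled from buffer only (0%) to maximal control ligand response (100%)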
[7] = 0.1% casein, no HSA, geometric mean
[8] = in the presence of 0.1% casein (no HSA), geometric mean
[9] = HEK-293 clonal cell line, in the presence of 1% HSA, geometric mean of relative EC50
[10] = HEK-293 clonal cell line, 1% HSA, geometric mean of relative EC50
[11] = in the presence of 0.1% casein (no HSA), geometric mean of relative EC50

Sequence of human GcgR (P47871 26-477): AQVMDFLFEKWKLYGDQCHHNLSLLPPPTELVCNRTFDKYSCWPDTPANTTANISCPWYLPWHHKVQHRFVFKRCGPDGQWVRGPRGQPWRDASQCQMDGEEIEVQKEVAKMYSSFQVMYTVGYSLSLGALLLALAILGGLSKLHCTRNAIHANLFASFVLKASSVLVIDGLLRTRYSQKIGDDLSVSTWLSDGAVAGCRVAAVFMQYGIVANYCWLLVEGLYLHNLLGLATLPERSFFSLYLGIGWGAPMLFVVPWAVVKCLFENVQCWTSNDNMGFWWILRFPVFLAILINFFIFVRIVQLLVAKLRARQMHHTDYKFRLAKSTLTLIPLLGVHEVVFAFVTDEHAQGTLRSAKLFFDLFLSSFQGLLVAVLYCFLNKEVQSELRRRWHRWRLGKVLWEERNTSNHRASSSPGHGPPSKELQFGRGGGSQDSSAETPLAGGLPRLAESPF
Sequence of hGcgR (P47871 26-477): as above
T2 sequence (P43220 24-463): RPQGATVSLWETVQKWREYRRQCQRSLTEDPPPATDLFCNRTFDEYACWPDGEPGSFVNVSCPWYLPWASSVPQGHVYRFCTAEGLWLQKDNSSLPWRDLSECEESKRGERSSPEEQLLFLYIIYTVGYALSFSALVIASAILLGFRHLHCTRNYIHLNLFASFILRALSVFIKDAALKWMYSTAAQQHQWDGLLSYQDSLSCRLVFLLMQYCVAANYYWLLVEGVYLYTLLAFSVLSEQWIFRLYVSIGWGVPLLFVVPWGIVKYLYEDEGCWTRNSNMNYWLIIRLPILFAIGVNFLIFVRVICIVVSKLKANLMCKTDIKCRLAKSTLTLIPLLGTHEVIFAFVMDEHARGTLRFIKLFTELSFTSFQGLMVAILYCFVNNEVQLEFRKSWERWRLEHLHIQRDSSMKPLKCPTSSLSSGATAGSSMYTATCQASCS

Molecule | EC50 [1] | EC50 [2] | EC50 [3] | EC50 [4] | EC50 [5] | EC50 [6] | EC50 [4, 8] | EC50 [5, 8] | EC50 [6, 8] | further results
Y[Aib]QGT[αMePhe(2-F)]TSD[4Pal]SI[αMeL]LD[Orn]QAQ[αMe4Pal][Orn]FI[dE][αMeY]LIEGGPSSGEPPPETE-NH2 [Example 1230] | 0.0152 nM | 1.14 nM | 68.4 nM |  |  |  |  |  |  | EC50 [4, 7]: 0.022 nM; EC50 [5, 7]: 1.19 nM; EC50 [6, 7]: 64.7 nM
H-Y[Aib]QGT[αMePhe(2-F)]TSD[4Pal]SILLDKK([γGlu-γGlu-C18 diacid])AQ[Aib]AFIE[αMeY]LEEGGPSSGAPPPSGGGE-NH2 [Example 668] | 1.69 nM | 27.1 nM | 203 nM | 0.0198 nM | 0.325 nM | 2.03 nM |  |  |  | 
H-Y[Aib]QGTFTSD[4Pal]SK[αMeL]LDKK([γGlu-γGlu-C18 diacid])AQ[Aib]AFIEYLIE[Aib]GPSSGAPPPSGSE-NH2 [Example 904] | 15 nM | 198 nM | 1330 nM |  |  |  | 0.194 nM | 1.94 nM | 9.88 nM | 
H-Y[Aib]QGTFTSD[4Pal]S[Orn][αMeL]LD[Orn]K([γGlu-γGlu-C18 diacid])AQ[αMe4Pal][Orn]FIE[αMeY]LIEGGPSSGAPPPSGSEE-NH2 [Example 974] | 80.9 nM | 283 nM | 870 nM |  |  |  | 0.607 nM | 1.57 nM | 3.7 nM | 
H-Y[Aib]QGTFTSDFS[Orn][αMeL]LDKK([AEEA-γGlu-C18 diacid])AQ[Aib]AFIEWLLEGGPSSGAPPPEGE-NH2 [Example 120] | 33.4 nM | 664 nM | 1540 nM |  |  |  | 0.44 nM | 4.77 nM | 5.85 nM | 
CC[C@H](C)[C@H](NC(=O)[C@H](CC(C)C)NC(=O)[C@](C)(Cc1ccc(O)cc1)NC(=O)[C@@H](CCC(=O)O)NC(=O)[C@@H](NC(=O)[C@H](Cc1ccccc1)NC(=O)[C@H](CCC(=O)O)NC(=O)C(C)(C)NC(=O)[C@H](C)NC(=O)[C@H](C)NC(=O)[C@H](CCCCNC(=O)COCCOCCNC(=O)CC[C@H](NC(=O)CCCCCCCCCCCCCCCCC(=O)O)C(=O)O)NC(=O)[C@H](CCCN)NC(=O)[C@H](CC(=O)O)NC(=O)[C@H](CC(C)C)NC(=O)[C@](C)(CC(C)C)NC(=O)[C@@H](NC(=O)[C@](C)(CO)NC(=O)[C@H](Cc1ccncc1)NC(=O)[C@H](CC(=O)O)NC(=O)[C@H](CO)NC(=O)[C@@H](NC(=O)[C@](C)(Cc1ccccc1F)NC(=O)[C@@H](NC(=O)CNC(=O)[C@H](CCC(N)=O)NC(=O)C(C)(C)NC(=O)[C@@H](N)Cc1ccc(O)cc1)[C@@H](C)O)[C@@H](C)O)[C@@H](C)CC)[C@@H](C)CC)C(=O)N[C@@H](CCC(=O)O)C(=O)NCC(=O)NCC(=O)N1CCC[C@H]1C(=O)N[C@@H](CO)C(=O)N[C@@H](CO)C(=O)NCC(=O)N[C@@H](C)C(=O)N1CCC[C@H]1C(=O)N1CCC[C@H]1C(=O)N1CCC[C@H]1C(=O)N[C@@H](CO)C(=O)NCC(=O)N[C@@H](CO)C(=O)N[C@@H](CCC(=O)O)C(=O)N[C@@H](CCC(=O)O)C(N)=O [Example 704] | 1.2 nM | 33.9 nM | 239 nM | 0.013 nM | 0.287 nM | 1.85 nM |  |  |  | 
Y[Aib]QGT[αMePhe(2-F)]TSD[4Pal][αMeS]ILLD[Orn]K([γGlu-γGlu-C18 diacid])AQ[Aib][Orn]FI[dE][αMeY]LQEGGPSSGEPPPEGAE-NH2 [Example 546] | 11.9 nM | 34.4 nM | 225 nM | 0.25 nM | 0.517 nM | 3.67 nM |  |  |  | 
H-Y[Aib]QGTFTSD[4Pal]SQ[αMeL]LDKK([γGlu-γGlu-C18 diacid])AQ[αMe4Pal]AFIEYLIE[Aib]GPSSGAPPPSGTGE-NH2 [Example 1127] |  |  |  |  |  |  | 0.167 nM | 6.16 nM | 5.95 nM | EC50 [1, 9]: 7.72 nM; EC50 [2, 9]: 234 nM; EC50 [3, 9]: 425 nM
H-Y[Aib]QGTFTSD[4Pal]S[Orn][αMeL]LD[Orn]K([Glu-γGlu-C18 diacid])AQ[Aib]AFIE[αMeY]LLEGGPSSGAPPPSGSEE-NH2 [Example 1066] | 69.9 nM | 1850 nM | 4260 nM |  |  |  | 0.446 nM | 9.8 nM | 25.4 nM | 
H-Y[Aib]QGT[αMePhe(2-F)]TSD[4Pal][αMeS]I[αMeL]LD[Orn]K([AEEA-γGlu-γGlu-C18 diacid])AQ[αMe4Pal]EFI[dE][αMeY]LIEGGPSSGAPPPSGE-NH2 [Example 1176] | 0.462 nM | 43.8 nM | 229 nM |  |  |  | 0.00717 nM | 0.344 nM | 1.8 nM | 
CC[C@H](C)[C@H](NC(=O)[C@H](CCCCN)NC(=O)[C@H](CC(=O)O)NC(=O)[C@H](CC(C)C)NC(=O)[C@](C)(CC(C)C)NC(=O)[C@@H](NC(=O)[C@H](CO)NC(=O)[C@H](Cc1ccc(O)cc1)NC(=O)[C@H](CC(=O)O)NC(=O)[C@H](CO)NC(=O)[C@@H](NC(=O)[C@](C)(Cc1ccccc1F)NC(=O)[C@@H](NC(=O)CNC(=O)[C@H](CCC(N)=O)NC(=O)C(C)(C)NC(=O)[C@@H](N)Cc1ccc(O)cc1)[C@@H](C)O)[C@@H](C)O)[C@@H](C)CC)C(=O)N[C@@H](C)C(=O)N[C@@H](CCC(N)=O)C(=O)NC(C)(C)C(=O)N[C@@H](C)C(=O)N[C@@H](Cc1ccccc1)C(=O)N[C@H](C(=O)N[C@@H](CCCCNC(=O)COCCOCCNC(=O)CC[C@H](NC(=O)CCCCCCCCCCCCCCCCC(=O)O)C(=O)O)C(=O)N[C@@H](Cc1ccc(O)cc1)C(=O)N[C@@H](CC(C)C)C(=O)N[C@@H](CCC(=O)O)C(=O)N[C@@H](CCC(=O)O)C(=O)NCC(=O)NCC(=O)N1CCC[C@H]1C(=O)N[C@@H](CO)C(=O)N[C@@H](CO)C(=O)NCC(=O)N[C@@H](C)C(=O)N1CCC[C@H]1C(=O)N1CCC[C@H]1C(=O)N1CCC[C@H]1C(=O)N[C@@H](CO)C(N)=O)[C@@H](C)CC [Example 455] (H-Y[Aib]QGT[αMePhe(2-F)]TSDYSI[αMeL]LDKIAQ[Aib]AFIK([AEEA-γGlu-C18 diacid])YLEEGGPSSGAPPPS-NH2) | 5.2 nM | 105 nM | 1200 nM | 0.0182 nM | 0.49 nM | 4.36 nM |  |  |  | 
H-Y[Aib]QGTFTSDYSI[αMeL]LDKIAAK([AEEA-AEEA-γGlu-C20 diacid])QFVEWLLA[Aib]GPSSGEPPPSEG-NH2 [Example 324] | 20.7 nM | 1060 nM | 1410 nM |  |  |  | 0.164 nM | 4.4 nM | 5.74 nM | 
Y[Aib]QGT[αMePhe(2-F)]TSD[4Pal][αMeS]I[αMeL]LD[Orn]K([AEEA-γGlu-C18 diacid])AA[Aib]EFI[dE][αMeY]LIEGGPSSGEPPPSGTE-NH2 [Example 719] |  |  |  |  |  |  |  |  |  | EC50 [1, 10]: 0.882 nM; EC50 [2, 10]: 23.2 nM; EC50 [3, 10]: 181 nM; EC50 [4, 11]: 0.00998 nM; EC50 [5, 11]: 0.22 nM; EC50 [6, 11]: 1.44 nM
H-Y[Aib]QGT[αMePhe(2-F)]TSD[4Pal]SILLD[Orn]K([γGlu-γGlu-C18 diacid])AQ[Aib][Orn]FIEYLQEGGPSSGAPPPSGTEE-NH2 [Example 582] | 10.8 nM | 35.5 nM | 1060 nM | 0.103 nM | 0.298 nM | 10.5 nM |  |  |  | 
H-Y[Aib]QGTFTSD[4Pal]SQ[αMeL]LD[Orn]K([AEEA-γGlu-C18 diacid])AQ[αMe4Pal]AFIE[αMeY]LIA[Aib]GPSSGAPPPSGSEE-NH2 [Example 1110] | 5.4 nM | 52 nM | 449 nM |  |  |  | 0.059 nM | 0.508 nM | 5.91 nM | 
H-Y[Aib]QGT[αMePhe(2-F)]TSDY[αMeS]I[αMeL]LD[Orn]K([AEEA-γGlu-C18 diacid])AQ[Aib][Orn]FI[dE][αMeY]LEEGGPSSGEPPPEEG-NH2 [Example 403] | 36.9 nM | 70 nM | 527 nM | 0.0827 nM | 0.396 nM | 1.59 nM |  |  |  | 

From patent US20240270821A1, “GIP/GLP1/GCG TRI-RECEPTOR AGONISTS AND USES THEREOF” (priority 2023, published 2024)
